# In the supplement of paper PMC13380429:
# How the values were obtained:
# Conditions in all cases: 72 h
# Caco-2 [1] = test: cell viability relative to DMSO; higher = less toxic
# Calu-3 [2] = test: as above
# HepG2 [3] = test: as above
# U2OS [4] = test: as above
# Vero E6 [5] = test: as above
# Caco-2 [6] = test: relative viability EC50 (midpoint between 100% and the lowest measured viability); higher = less toxic
# Calu-3 [7] = test: as above
# HepG2 [8] = test: as above
# U2OS [9] = test: as above
# Vero E6 [10] = test: as above
# Caco-2 [11] = test: drug sensitivity score (DSS) for viability; higher = more toxic; extreme values may be limits of the assay
# Calu-3 [12] = test: as above
# HepG2 [13] = test: as above
# U2OS [14] = test: as above
# Vero E6 [15] = test: as above
Structure (SMILES),cell viability (Caco-2 [1]; 1 nM) [%],cell viability (Caco-2 [1]; 10 nM) [%],cell viability (Caco-2 [1]; 100 nM) [%],cell viability (Caco-2 [1]; 1000 nM) [%],cell viability (Caco-2 [1]; 10000 nM) [%],cell viability (Calu-3 [2]; 1 nM) [%],cell viability (Calu-3 [2]; 10 nM) [%],cell viability (Calu-3 [2]; 100 nM) [%],cell viability (Calu-3 [2]; 1000 nM) [%],cell viability (Calu-3 [2]; 10000 nM) [%],cell viability (HepG2 [3]; 1 nM) [%],cell viability (HepG2 [3]; 10 nM) [%],cell viability (HepG2 [3]; 100 nM) [%],cell viability (HepG2 [3]; 1000 nM) [%],cell viability (HepG2 [3]; 10000 nM) [%],cell viability (U2OS [4]; 1 nM) [%],cell viability (U2OS [4]; 10 nM) [%],cell viability (U2OS [4]; 100 nM) [%],cell viability (U2OS [4]; 1000 nM) [%],cell viability (U2OS [4]; 10000 nM) [%],cell viability (Vero E6 [5]; 1 nM) [%],cell viability (Vero E6 [5]; 10 nM) [%],cell viability (Vero E6 [5]; 100 nM) [%],cell viability (Vero E6 [5]; 1000 nM) [%],cell viability (Vero E6 [5]; 10000 nM) [%],relative viability EC50 (Caco-2 [6]) [nM],relative viability EC50 (Calu-3 [7]) [nM],relative viability EC50 (HepG2 [8]) [nM],relative viability EC50 (U2OS [9]) [nM],relative viability EC50 (Vero E6 [10]) [nM],drug sensitivity score (Caco-2 [11]),drug sensitivity score (Calu-3 [12]),drug sensitivity score (HepG2 [13]),drug sensitivity score (U2OS [14]),drug sensitivity score (Vero E6 [15])
CCNC(=O)Nc1ccc(-c2nc3c(c(N4CCOC[C@@H]4C)n2)CCN(C2COC2)C3)cc1 [GDC-0349],107,95.7,82.3,51.7,35,101,100,79,39.5,29.5,114,99.8,95.9,49,26.3,102,98.9,94.6,66.2,21.1,106,105,94.2,81.2,40.3,295,211,600,1170,1460,11.1,13.7,10.4,8.3,5.6
CC(C)(Sc1ccc(CCN(CCCCC2CCCCC2)C(=O)NC2CCCCC2)cc1)C(=O)O [GW-7647],87.7,101,98.3,104,103,97.9,110,100,94.6,100,87,95.3,99.1,87,101,101,101,105,96.2,98.2,97.3,100,91.1,97.7,110,> 10000,> 10000,> 10000,> 10000,> 10000,0,0,0,0,0
CCn1c2ccccc2c2cc(CNCc3ccccc3OC)ccc21 [HLCL-61],103,92,94.6,107,101,111,99.5,95.7,106,87.9,106,95.4,93.5,95.6,79.2,100,96.6,99.2,102,94.9,91.3,93.2,88.2,88.8,93.5,> 10000,> 10000,> 10000,> 10000,> 10000,0,0,1.1,0,0.1
O=C(O)c1ccc(O)c2ncccc12 [IOX1],89,97.7,97.6,104,102,97.6,99.5,98.2,105,86.7,110,90.1,87.4,101,94.7,99.9,100,100,103,99.7,98,92.3,103,101,106,> 10000,> 10000,> 10000,> 10000,> 10000,0,0,0,0,0
C[C@]12CC[C@H]3[C@@H](CC[C@]4(O)C[C@@H](O)CC[C@]34C=O)[C@@]1(O)CC[C@@H]2C1=CC(=O)OC1 [K-strophanthidin],87.6,110,99.4,68.5,38.8,98.2,102,107,92,25.8,96.4,88.6,102,46.2,14.8,96.9,98.7,96.6,72.4,5.2,99.5,98.8,72.6,1.9,0.9,975,2280,807,1420,151,7.3,5.4,11.1,9.3,21.8
N=C(N)SCCc1ccc(OCc2ccc([N+](=O)[O-])cc2)cc1 [KB-R7943],88.7,103,99.2,97.2,94.5,104,110,93.5,99.6,98.4,96.2,108,108,90.3,78.8,96.5,105,98.3,105,102,99.7,101,99.2,97.4,90.4,> 10000,> 10000,> 10000,> 10000,> 10000,0,0,1.7,0,0
CSc1ccccc1Nc1nc(N2CCNCC2)nc2c(NCC3CC3)ncnc12 [KHK-IN-1],103,107,98.7,104,0.6,99.5,95.4,106,94.1,0.2,104,91,94.1,91.6,0,97.6,98.7,95.7,98.2,0.1,101,98.1,96.1,89.1,0.1,3390,2700,2470,3040,2260,5.2,6.4,6.9,5.8,7.3
